Reference: ChEMBL document CHEMBL1151696 (Bioorg Med Chem, 2008)
Calls of active or inactive are those of the source. No cut-off for these calls is given here.

Experiments:
[1] = tested on: Mammalian orthoreovirus 1; format: functional, organism-based
Human respirovirus 3 = format: functional, organism-based
[2] = tested on: Respiratory syncytial virus; format: functional, organism-based
Rattus norvegicus = organism: Rattus norvegicus; assay: Inhibition of [3H]dopamine uptake in Wistar rat striatum synaptosomes at 100 uM by scintillation spectrometry; format: functional, subcellular; set-up: scale not given: the % may be the effect or the level left
[3] = tested on: Vesicular stomatitis virus; format: functional, organism-based
Glutamate NMDA receptor [4] = assay: Antagonist activity at NMDA receptor in cerebellar granule neurons assessed as inhibition of NMDA-induced increase in intracellular calcium concentration by fluorometric assay; format: functional, cell-based
Human alphaherpesvirus 1 = format: functional, organism-based
Feline coronavirus = format: functional, organism-based
Coxsackievirus B4 = format: functional, organism-based
Sindbis virus = format: functional, organism-based
Punta Toro virus = format: functional, organism-based
Glutamate NMDA receptor [5] = assay: Antagonist activity at NMDA receptor in cerebellar granule neurons assessed as inhibition of glutamate-induced increase in intracellular calcium concentration by fluorometric assay; format: functional, cell-based
Human alphaherpesvirus 2 = format: functional, organism-based

Row | SMILES | Activity [1] | Activity (Human respirovirus 3) | Activity [2] | Activity (Rattus norvegicus) [%] | Activity [3] | IC50 (Glutamate NMDA receptor [4]) [µM] | Activity (Human alphaherpesvirus 1) | Activity (Feline coronavirus) | Activity (Coxsackievirus B4) | Activity (Sindbis virus) | Activity (Punta Toro virus) | IC50 (Glutamate NMDA receptor [5]) [µM] | Activity (Human alphaherpesvirus 2)
1 | C1CCN(C23CC4CC(CC2C4)C3)CC1 | inactive | inactive | inactive | 68.5 | inactive | 45 | inactive | inactive | inactive | inactive | inactive | > 500 | inactive
2 | CN(C)CC12CC3(C)CC1CC3(C)C2 | inactive | inactive | inactive | – | inactive | > 200 | inactive | inactive | inactive | inactive | inactive | > 200 | inactive
3 | Fc1ccc(CNC23CC4CC(CC2C4)C3)cc1 | inactive | inactive | inactive | 81.1 | inactive | > 200 | inactive | inactive | inactive | inactive | inactive | > 200 | inactive
4 | CNCC12CC3(C)CC1CC3(C)C2 | inactive | inactive | inactive | 57.3 | inactive | > 200 | inactive | inactive | inactive | inactive | inactive | > 200 | inactive
5 | CN(Cc1ccccc1)C12CC3CC(CC1C3)C2 | inactive | inactive | inactive | 47.2 | inactive | 36 | inactive | inactive | inactive | inactive | inactive | > 500 | inactive
6 | CNC12CC3CC(CC1C3)C2 | inactive | inactive | inactive | 65.2 | inactive | 65 | inactive | inactive | inactive | inactive | inactive | 205 | inactive
7 | COc1ccccc1CNC12CC3CC(CC1C3)C2 | inactive | inactive | inactive | 58.3 | inactive | 92 | inactive | inactive | inactive | inactive | inactive | > 500 | inactive
8 | CC12CC3CC1(C)CC3(CNC(=N)N)C2 | inactive | inactive | inactive | – | inactive | 7.1 | inactive | inactive | inactive | inactive | inactive | 104 | inactive
9 | CN(Cc1ccccc1)CC12CC3CC(CC1C3)C2 | inactive | inactive | inactive | 45 | inactive | 178 | inactive | inactive | inactive | inactive | inactive | > 500 | inactive
10 | CC12CC3CC1(C)CC3(NCc1cccs1)C2 | inactive | inactive | inactive | – | inactive | 80 | inactive | inactive | inactive | inactive | inactive | 204 | inactive
11 | CC12CC3CC1(C)CC3(N)C2 | inactive | inactive | inactive | 54.8 | inactive | 23 | inactive | inactive | inactive | inactive | inactive | 274 | inactive
12 | c1csc(CNC23CC4CC(CC2C4)C3)c1 | inactive | inactive | inactive | 47.7 | inactive | 17 | inactive | inactive | inactive | inactive | inactive | 384 | inactive
13 | CC12CC3CC1(C)CC3(CN1CCCCC1)C2 | inactive | inactive | inactive | 39.8 | inactive | > 200 | inactive | inactive | inactive | inactive | inactive | > 200 | inactive
14 | COc1ccc(CNC23CC4CC(CC2C4)C3)cc1 | inactive | inactive | inactive | 63.9 | inactive | > 200 | inactive | inactive | inactive | inactive | inactive | > 200 | inactive
15 | COc1cccc(CNC23CC4CC(CC2C4)C3)c1 | inactive | inactive | inactive | 45.8 | inactive | 87 | inactive | inactive | inactive | inactive | inactive | > 500 | inactive
16 | CN(C)CC12CC3CC(CC1C3)C2 | inactive | inactive | inactive | 62.5 | inactive | > 200 | inactive | inactive | inactive | inactive | inactive | > 200 | inactive
17 | CN(C)C12CC3CC(CC1C3)C2 | inactive | inactive | inactive | 71.3 | inactive | 173 | inactive | inactive | inactive | inactive | inactive | > 500 | inactive
18 | CC12CC3CC(C)(C1)CC(N)(C3)C2 | – | – | – | 53.7 | – | – | – | – | – | – | – | – | –
19 | CC12CC3CC1(C)CC3(NCc1ccccc1)C2 | inactive | inactive | inactive | – | inactive | 70 | inactive | inactive | inactive | inactive | inactive | 143 | inactive
20 | c1ccc(CNCC23CC4CC(CC2C4)C3)cc1 | inactive | inactive | inactive | 57.9 | inactive | 138 | inactive | inactive | inactive | inactive | inactive | > 500 | inactive
21 | N=C(N)NCC12CC3CC(CC1C3)C2 | inactive | inactive | inactive | 119 | inactive | – | inactive | inactive | inactive | inactive | inactive | – | inactive
22 | CN(Cc1ccccc1)C12CC3(C)CC1CC3(C)C2 | inactive | inactive | inactive | – | inactive | > 200 | inactive | inactive | inactive | inactive | inactive | > 200 | inactive
23 | CNC12CC3(C)CC1CC3(C)C2 | inactive | inactive | inactive | 74.6 | inactive | 35 | inactive | inactive | inactive | inactive | inactive | – | inactive
24 | NC(N)=NCC12CC3CC(CC1C3)C2 | – | – | – | – | – | 25 | – | – | – | – | – | 453 | –
